Test results published in patent US7919475B2, “Compositions and methods for improving heart function” (The Regents of The University of California, priority 2004, dated 2011).

Test system: cellular protein O-GlcNAcylation in STZ-induced diabetic hearts
Experiment: Cellular protein O-GlcNAcylation in diabetic mouse hearts by Western blot
Format: in vivo
Conditions: STZ-induced diabetic mice, insulin 50 units/g per day subcutaneously for 2 weeks
Source text: To rule out any potentially toxic effects of STZ on the heart, several STZ-injected mice were intensively treated with Ultralente human insulin (Eli Lilly and Company, IN) with 50 units/g per day subcutaneously. The insulin treatment commenced on the third day after STZ injection and lasted for 2 weeks. The cellular O-GlcNAcylation in these hearts was compared with that of the non-insulin treated diabetic hearts. In addition, several 20 weeks old male polygenic diabetic NONcNZO10/LtJ mice (The Jackson Laboratory) (see, e.g., Reifsnyder (2002) Diabetes 51:825-832; Leiter (2004) Diabetes 53 Suppl 1:S4-11) were used as a type II diabetic model to investigate the excess O-GlcNAcyaltion level in the diabetic heart independent of STZ administration. These mice developed hyperglycemia at 12-16 weeks. At the sacrifice time, blood glucose levels were above 33.3 mmol/L. Animal procedures were performed in accordance with the guidelines established by the Committee on Animal Research at the University of California, San Diego. […]
Twenty μg of protein was mixed with Laemmli sample buffer at room temperature for 10 min (samples for anti-O-GlcNAc antibody detection was heated at 70° C. for 10 min) and then loaded onto 4-10% gradient Tris/glycine gels. […] Films were scanned and analyzed by IMAGE-J™ software (NIH).

Substance: insulin: Ultralente human insulin (Eli Lilly and Company)
- excess O-GlcNAcylation of cellular protein in diabetic hearts: prevented
